From US5026701A, “Morpholine compounds, compositions and use” (Adir et Compagnie, priority 1989, dated 1991)

Assays:
mice [1] = assay: Hypothermia with apomorphine (16 mg/kg i.p.); type: in vivo; conditions: 30 minutes before apomorphine 16 mg/kg i.p.
Method: The administration of a very strong dose of apomorphine (16 mg/kg i.p.) causes hypothermia of approximately 4° C. by the stimulation of dopaminergic heteroreceptors situated on the noradrenergic neurones. The so-created hypothermia is thus due to the failure of noradrenergic neurotransmission. The facilitating agents administered 30 minutes beforehand counteract this hypothermia.

mice [2] = assay: Psycho-awakening effect: sodium barbital (270 mg/kg i.p.) induced narcosis duration; type: in vivo; conditions: 30 μmols/kg i.p.
Method: Male mice are administered sodium barbital by the i.p. route at a dose of 270 mg/kg. The duration of the narcosis so induced is compared between control animals and animals treated beforehand by the i.p. route with the compounds examined.

mice [3] = assay: Hexobarbital (75 mg/kg i.p.) induced narcosis duration; type: in vivo
Method: This antagonism of barbital-induced narcosis reflects a psycho-awakening effect since no antagonism occurs when narcosis is induced with hexobarbital (75 mg/kg i.p.) (product of Example 2β:+20%; product of Example 1:+26%).

mice [4] = assay: Cerebral protecting effects: acute global hypoxia (barometric depressurization to 160 mbar), cerebral survival time; type: in vivo; conditions: 60 minutes before hypoxia
mice [5] = assay: as above; type: in vivo; conditions: 30 minutes before hypoxia; for increase in the survival time: male mice
Method: The cerebral survival time taken as the occurrence of the last respiratory gasp is measured in control animals and in animals that have received the compound under examination 30 minutes beforehand by the intraperitoneal route.

[6] = tested on: synaptosomal reuptake of noradrenaline (NAD); assay: Synaptosomal reuptake of tritiated noradrenaline in vitro; type: biochemical; conditions: 10^-6 M, synaptosomes, versus control preparation
Method: This effect was examined in the […] by measuring the synaptosomal reuptake of noradrenaline (NAD). For this, a fraction of synaptosomes is placed in the presence of tritiated NAD with or without previous incubation with the compound examined.
A measurement of the radioactivity in the synaptosomal pellet makes it possible to calculate the quantity of NAD reuptaken naturally by neurone endings. A compound inhibiting the reuptake reduces the radioactivity measured and a percentage inhibition is measured by comparison with a control preparation.

mice [7] = assay: Lethal dose test with yohimbine (potentiation of yohimbine 30 mg/kg i.p.), percentage mortality; type: in vivo; conditions: 9 μmols/kg i.p., 30 minutes before yohimbine 30 mg/kg i.p.
Method: (§1) Male mice are administered yohimbine (α2 antagonist) by the intraperitoneal route at a dose of 30 mg/kg, a non-lethal dose which only causes the occurrence of hyperexcitability symptoms or convulsions. Any compound that facilitates noradrenergic neurotransmission potentiates the releasing effect of the yohimbine and brings about the death of the animals.
(§2) A percentage mortality is thus measured for each group of animals treated 30 minutes beforehand i.p. or 60 minutes beforehand p.o. with the compound examined.

[8] = as above; type: in vivo, mice; conditions: mouse, in vivo; yohimbine lethality potentiation, mice; read-out: relationship between the mean effective p.o. and i.p. doses (oral bioavailability)
Method: as §1, §2

| SMILES | inhibiting effect vis-a-vis hypothermia (mice [1]; 3 μmols/kg) | inhibiting effect vis-a-vis hypothermia (mice [1]; 9 μmols/kg) | change in duration of narcosis with barbital (mice [2]) [%] | increase in the survival time (mice [5]; 3 μmols/kg i.p.) | increase in the survival time (mice [5]; 9 μmols/kg i.p.) | increase in the survival time (mice [5]; 30 μmols/kg i.p.) | increase in the survival time (mice [5]; 90 μmols/kg i.p.) | inhibition of the reuptake of NAD [6] [%] | ratio of mean effective p.o. to i.p. dose [8] | other results |
| --- | --- | --- | --- | --- | --- | --- | --- | --- | --- | --- |
| Fc1cc2c(c(OCC3CNCCO3)c1)NCCC2 (racemic) [Example 1, R,S-6-fluoro-8-(2-morpholinylmethoxy)-1,2,3,4-tetrahydroquinoline] | -27% | -46% | -36 |  |  |  |  |  |  | change in duration of narcosis induced with hexobarbital (mice [3]): +26% |
| Fc1ccc(OCC2CNCCO2)c2c1CCCN2 (racemic) [Example 2, R,S-5-fluoro-8-(2-morpholinylmethoxy)-1,2,3,4-tetrahydroquinoline] |  | -29% |  |  |  |  |  |  |  |  |
| c1cc2c(c(OCC3CNCCO3)c1)NCCC2 (racemic) [reference product, R,S-8-[(2-morpholinyl)methoxy]-1,2,3,4-tetrahydroquinoline, reference compound] | no effect | +0.5% | -20 | +5% | +17% | +42% | +87% | 33.6 | 4.25 | increase in the survival time (mice [4]; 40 μmols/kg orally): 31%; minimal effective dose (mice [5]; Mus musculus, ip, read-out: dose from which hypoxia is significantly counteracted (protecting effect obtained)): 9 µmol/kg; mortality (mice [7]): +20% |
| CS(=O)(=O)O.Fc1cc2c(c(OC[C@H]3CNCCO3)c1)NCCC2 [Example 1α, R-6-fluoro-8-(2-morpholinylmethoxy)-1,2,3,4-tetrahydroquinoline monomethanesulphonate] |  |  |  |  | +37% | +55% | +114% |  | 3.16 | increase in the survival time (mice [4]; 9 μmols/kg orally): 37% |
| Fc1cc2c(c(OC[C@@H]3CNCCO3)c1)NCCC2 [Example 1β, S-6-fluoro-8-(2-morpholinylmethoxy)-1,2,3,4-tetrahydroquinoline monomethanesulphonate] |  |  |  | +21% | +42% | +62% | +108% | -55.4 |  |  |
| Fc1ccc(OC[C@H]2CNCCO2)c2c1CCCN2 [Example 2α, R-5-fluoro-8-(2-morpholinylmethoxy)-1,2,3,4-tetrahydroquinoline monomethanesulphonate] |  |  |  |  |  |  |  |  | 1.77 |  |
| Fc1ccc(OC[C@@H]2CNCCO2)c2c1CCCN2 [Example 2β, S-5-fluoro-8-(2-morpholinylmethoxy)-1,2,3,4-tetrahydroquinoline monomethanesulphonate] | -16% | -21% | 40 | 21% |  |  |  | -58.9 |  | change in duration of narcosis induced with hexobarbital (mice [3]): +20% |
